Assay results taken from patent US10428083B2, “Heterocyclylmethyl-thienouracile as antagonists of the adenosine-A2B-receptor” (BAYER PHARMA AKTIENGESELLSCHAFT, priority 2015, dated 2019).

Target: human adenosine A2b receptor (Homo sapiens (Human), UniProt P29275)
Experiment: Cellular in vitro reporter gene test for A2b receptor activity (CHO-K1, CRE-luciferase, NECA stimulation)
Assay type: cell-based
Conditions: recombinant CHO-K1 cell line, CRE-luciferase reporter, antagonism of EC50 concentration of NECA; in some cases means of several determinations, rounded to two significant figures; read-out: A2b receptor IC50
Procedure, shortened: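 CHO-K1 cells with CRE-driven luciferase; antagonists co-incubated with NECA at its EC50, determined in a pre-experiment on each test day. Luciferase read by luminescence 3 h after NECA addition.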

human adenosine A2b receptor, sequence (P29275 whole entry): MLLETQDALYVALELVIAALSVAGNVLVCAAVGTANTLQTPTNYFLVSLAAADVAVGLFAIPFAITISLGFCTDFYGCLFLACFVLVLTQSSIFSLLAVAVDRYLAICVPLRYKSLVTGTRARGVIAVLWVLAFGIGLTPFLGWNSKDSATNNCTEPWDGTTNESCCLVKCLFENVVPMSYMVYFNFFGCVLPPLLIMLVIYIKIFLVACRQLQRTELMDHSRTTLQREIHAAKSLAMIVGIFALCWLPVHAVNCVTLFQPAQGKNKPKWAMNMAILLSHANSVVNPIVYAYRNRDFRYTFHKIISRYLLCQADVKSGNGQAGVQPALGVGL

Row | IC50 | Compound
1 | 45 nM | CCn1c(=O)c2c(C)c(CN3CCNC(=O)C3=O)sc2n(CF)c1=O [Example 393, 6-[(2,3-Dioxopiperazin-1-yl)methyl]-3-ethyl-1-(fluoromethyl)-5-methylthieno[2,3-d]pyrimidine-2,4(1H,3H)-dione]
2 | 13 nM | COC(=O)N=C1NCCN1Cc1sc2c(c1C)c(=O)n(C(C)C)c(=O)n2CC1CCO1 (racemic) [Example 379, Methyl [1-{[3-isopropyl-5-methyl-1-(oxetan-2-ylmethyl)-2,4-dioxo-1,2,3,4-tetrahydrothieno[2,3-d]pyrimidin-6-yl]methyl}imidazolidin-2-ylidene]carbamate]
3 | 33 nM | COCCn1c(=O)c2c(C)c(CN3CCNC3=NC#N)sc2n(CC2CCCO2)c1=O (racemic) [Example 367, [1-{[3-(2-Methoxyethyl)-5-methyl-2,4-dioxo-1-(tetrahydrofuran-2-ylmethyl)-1,2,3,4-tetrahydrothieno[2,3-d]pyrimidin-6-yl]methyl}imidazolidin-2-ylidene]cyanamide]
4 | 10 nM | [2H]C([2H])(c1sc2c(c1C)c(=O)n(CC(F)(F)F)c(=O)n2CCOC)N1CCNC1=O [Example 500, 1-(2-Methoxyethyl)-5-methyl-6-[(2-oxoimidazolidin-1-yl)(dideutero)methyl]-3-(2,2,2-trifluoroethyl)thieno[2,3-d]pyrimidine-2,4(1H,3H)-dione]
5 | 11 nM | Cc1c(CN2CCNC2=NC#N)sc2c1c(=O)n(CC(C)(C)C)c(=O)n2CCCF [Example 444, [1-{[3-(2,2-Dimethylpropyl)-1-(3-fluoropropyl)-5-methyl-2,4-dioxo-1,2,3,4-tetrahydrothieno[2,3-d]pyrimidin-6-yl]methyl}imidazolidin-2-ylidene]cyanamide]
6 | 32 nM | COCCn1c(=O)n(C(C)C(F)(F)F)c(=O)c2c(C)c(CN3CCNC3=NC(=O)OC)sc21 (single isomer, unassigned) [Example 514, Methyl [1-{[1-(2-methoxyethyl)-5-methyl-2,4-dioxo-3-(1,1,1-trifluoropropan-2-yl)-1,2,3,4-tetrahydrothieno[2,3-d]pyrimidin-6-yl]methyl}imidazolidin-2-ylidene]carbamate]
7 | 280 nM | COCCn1c(=O)n(CCC(F)(F)F)c(=O)c2c(C)c(CN3CCN(C)C3=O)sc21 [Example 337, 1-(2-Methoxyethyl)-5-methyl-6-[(3-methyl-2-oxoimidazolidin-1-yl)methyl]-3-(3,3,3-trifluoropropyl)thieno[2,3-d]pyrimidine-2,4(1H,3H)-dione]
8 | 60 nM | COC(C)Cn1c(=O)c2c(C)c(Cn3nc[nH]c3=O)sc2n(CCC(F)(F)F)c1=O (single isomer, unassigned) [Example 442, 3-(2-Methoxypropyl)-5-methyl-6-[(5-oxo-4,5-dihydro-1H-1,2,4-triazol-1-yl)methyl]-1-(3,3,3-trifluoropropyl)thieno[2,3-d]pyrimidine-2,4(1H,3H)-dione]
9 | 12 nM | COCCn1c(=O)n(CC(C)(C)C)c(=O)c2c(C)c(Cn3cc[nH]c3=O)sc21 [Example 506, 3-(2,2-Dimethylpropyl)-1-(2-methoxyethyl)-5-methyl-6-[(2-oxo-2,3-dihydro-1H-imidazol-1-yl)methyl]thieno[2,3-d]pyrimidine-2,4(1H,3H)-dione]
10 | 170 nM | Cc1c(Cn2nc[nH]c2=O)sc2c1c(=O)n(C(C)C)c(=O)n2CF [Example 422, 1-(Fluoromethyl)-3-isopropyl-5-methyl-6-[(5-oxo-4,5-dihydro-1H-1,2,4-triazol-1-yl)methyl]thieno[2,3-d]pyrimidine-2,4(1H,3H)-dione]
11 | 15 nM | COC(=O)N=C1NCCN1Cc1sc2c(c1C)c(=O)n(CC(F)(F)F)c(=O)n2CC1CCO1 (racemic) [Example 383, Methyl [1-{[5-methyl-1-(oxetan-2-ylmethyl)-2,4-dioxo-3-(2,2,2-trifluoroethyl)-1,2,3,4-tetrahydrothieno[2,3-d]pyrimidin-6-yl]methyl}imidazolidin-2-ylidene]carbamate]
12 | 47 nM | COCCn1c(=O)n(C(C)C(F)(F)F)c(=O)c2c(C)c(CN3CCNC3=NC#N)sc21 (single isomer, unassigned) [Example 510, [1-{[1-(2-Methoxyethyl)-5-methyl-2,4-dioxo-3-(1,1,1-trifluoropropan-2-yl)-1,2,3,4-tetrahydrothieno[2,3-d]pyrimidin-6-yl]methyl}imidazolidin-2-ylidene]cyanamide]
13 | 10 nM | CCOCCn1c(=O)c2c(C)c(CN3CCNC3=O)sc2n(CCC(F)(F)F)c1=O [Example 326, 3-(2-Ethoxyethyl)-5-methyl-6-[(2-oxoimidazolidin-1-yl)methyl]-1-(3,3,3-trifluoropropyl)thieno[2,3-d]pyrimidine-2,4(1H,3H)-dione]
14 | 99 nM | CCCn1cnn(Cc2sc3c(c2C)c(=O)n(CC)c(=O)n3CCC(F)(F)F)c1=O [Example 355, 3-Ethyl-5-methyl-6-[(5-oxo-4-propyl-4,5-dihydro-1H-H-1,2,4-triazol-1-yl)methyl]-1-(3,3,3-trifluoropropyl)thieno[2,3-d]pyrimidine-2,4(1H,3H)-dione]

Continued, compound first:

Row | Compound | IC50
15 | CCn1c(=O)c2c(C)c(CN3CC(C)NC3=S)sc2n(CCOC)c1=O (racemic) [Example 303, 3-Ethyl-1-(2-methoxyethyl)-5-methyl-6-[(4-methyl-2-thioxoimidazolidin-1-yl)methyl]thieno[2,3-d]pyrimidine-2,4(1H,3H)-dione] | 46 nM
16 | COCCn1c(=O)n(CCCF)c(=O)c2c(C)c(CN3CCNC3=O)sc21 [Example 224, 3-(3-Fluoropropyl)-1-(2-methoxyethyl)-5-methyl-6-[(2-oxoimidazolidin-1-yl)methyl]thieno[2,3-d]pyrimidine-2,4(1H,3H)-dione] | 31 nM
17 | CCn1c(=O)c2c(C)c(CN3CCNC3=O)sc2n(CCC(C)C)c1=O [Example 79, 3-Ethyl-5-methyl-1-(3-methylbutyl)-6-[(2-oxoimidazolidin-1-yl)methyl]thieno[2,3-d]pyrimidine-2,4(1H,3H)-dione] | 9.9 nM
18 | Cc1c(CN2CCNC2=O)sc2c1c(=O)n(CC(F)(F)F)c(=O)n2CC1CCCO1 (single isomer, unassigned) [Example 210, 5-Methyl-6-[(2-oxoimidazolidin-1-yl)methyl]-1-(tetrahydrofuran-2-ylmethyl)-3-(2,2,2-trifluoroethyl)thieno[2,3-d]pyrimidine-2,4(1H,3H)-dione] | 9.1 nM
19 | Cc1c(CN2CCN(C(C)C)C2=S)sc2c1c(=O)n(CC(F)(F)F)c(=O)n2C [Example 305, 6-[(3-Isopropyl-2-thioxoimidazolidin-1-yl)methyl]-1,5-dimethyl-3-(2,2,2-trifluoroethyl)thieno[2,3-d]pyrimidine-2,4(1H,3H)-dione] | 140 nM
20 | CCn1c(=O)c2c(C)c(CN3CCNC3=O)sc2n(CCSC(F)(F)F)c1=O [Example 58, 3-Ethyl-5-methyl-6-[(2-oxoimidazolidin-1-yl)methyl]-1-{2-[(trifluoromethyl)sulphanyl]ethyl}thieno[2,3-d]pyrimidine-2,4(1H,3H)-dione] | 2.6 nM
21 | CCn1c(=O)c2c(C)c(CN3CCNC3=S)sc2n(CCCOC)c1=O [Example 296, 3-Ethyl-1-(3-methoxypropyl)-5-methyl-6-[(2-thioxoimidazolidin-1-yl)methyl]thieno[2,3-d]pyrimidine-2,4(1H,3H)-dione] | 16 nM
22 | Cc1c(CN2CCNC(=O)C2=O)sc2c1c(=O)n(CC(C)C)c(=O)n2CCCF [Example 121, 6-[(2,3-Dioxopiperazin-1-yl)methyl]-1-(3-fluoropropyl)-3-isobutyl-5-methylthieno[2,3-d]pyrimidine-2,4(1H,3H)-dione] | 20 nM
23 | COCCn1c(=O)n(CC(C)(C)C)c(=O)c2c(C)c(CN3CCNC3=S)sc21 [Example 151, 3-(2,2-Dimethylpropyl)-1-(2-methoxyethyl)-5-methyl-6-[(2-thioxoimidazolidin-1-yl)methyl]thieno[2,3-d]pyrimidine-2,4(1H,3H)-dione] | 5.7 nM
24 | CCn1c(=O)c2c(C)c(CN3CCNC3=O)sc2n(CC2CCO2)c1=O (racemic) [Example 65, 3-Ethyl-5-methyl-1-(oxetan-2-ylmethyl)-6-[(2-oxoimidazolidin-1-yl)methyl]thieno[2,3-d]pyrimidine-2,4(1H,3H)-dione (racemate)] | 12 nM
25 | Cc1c(CN2CCNC2=O)sc2c1c(=O)n(CC(F)(F)F)c(=O)n2CC1CCCO1 (single isomer, unassigned) [Example 211, 5-Methyl-6-[(2-oxoimidazolidin-1-yl)methyl]-1-(tetrahydrofuran-2-ylmethyl)-3-(2,2,2-trifluoroethyl)thieno[2,3-d]pyrimidine-2,4(1H,3H)-dione] | 17 nM
26 | Cc1c(Cn2cc[nH]c2=O)sc2c1c(=O)n(C(C)C)c(=O)n2CC1CCCO1 (single isomer, unassigned) [Example 248, 3-Isopropyl-5-methyl-6-[(2-oxo-2,3-dihydro-1H-imidazol-1-yl)methyl]-1-(tetrahydrofuran-2-ylmethyl)thieno[2,3-d]pyrimidine-2,4(1H,3H)-dione] | 5.1 nM
27 | CCn1c(=O)c2c(C)c(CN3CC[C@@H](O)C3=O)sc2n(CCC(F)(F)F)c1=O [Example 126, 3-Ethyl-6-{[(3R)-3-hydroxy-2-oxopyrrolidin-1-yl]methyl}-5-methyl-1-(3,3,3-trifluoropropyl)thieno[2,3-d]pyrimidine-2,4(1H,3H)-dione] | 3.9 nM
28 | COCCn1c(=O)n(CC(F)(F)F)c(=O)c2c(C)c(Cn3[nH]ccc3=O)sc21 [Example 283, 1-(2-Methoxyethyl)-5-methyl-6-[(5-oxo-2,5-dihydro-1H-pyrazol-1-yl)methyl]-3-(2,2,2-trifluoroethyl)thieno[2,3-d]pyrimidine-2,4(1H,3H)-dione] | 79 nM
29 | CCn1c(=O)c2c(C)c(CN3CCNC3=O)sc2n(CC2CCOC2)c1=O (single isomer, unassigned; enantiomer 1) [Example 74, 3-Ethyl-5-methyl-6-[(2-oxoimidazolidin-1-yl)methyl]-1-(tetrahydrofuran-3-ylmethyl)thieno[2,3-d]pyrimidine-2,4(1H,3H)-dione (Enantiomer 1)] | 36 nM
